“And” between values parts separate entries of the source, which are not always exact repeats. Equal entries are not always repeated. Where two headings read alike, the source gives them in different places.
Assays:
[1] = molecular target: T1, MKK7 (Homo sapiens, UniProt O14733); experiment: In vitro kinase activity assay for MKK7 (Nanosyn); format: biochemical
T1 construct: purchased Nanosyn (contract assay)
T1 sequence (O14733 1-419): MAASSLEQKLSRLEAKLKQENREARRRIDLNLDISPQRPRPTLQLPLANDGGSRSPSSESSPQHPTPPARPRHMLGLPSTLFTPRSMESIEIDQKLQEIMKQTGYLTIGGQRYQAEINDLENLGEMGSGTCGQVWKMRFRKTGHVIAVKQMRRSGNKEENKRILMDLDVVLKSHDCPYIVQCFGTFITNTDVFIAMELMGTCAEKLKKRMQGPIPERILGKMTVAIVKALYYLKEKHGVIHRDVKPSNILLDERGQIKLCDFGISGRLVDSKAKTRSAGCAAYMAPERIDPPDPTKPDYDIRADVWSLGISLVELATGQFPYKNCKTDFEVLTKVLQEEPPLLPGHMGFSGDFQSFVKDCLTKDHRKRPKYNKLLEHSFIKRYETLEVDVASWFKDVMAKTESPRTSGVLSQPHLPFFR
Description: Based on visual inspection of the top 500 predictions, 10 compounds were selected for synthesis and testing (see, Table 1). The “Docking rank” is given in its respective run, whereas four virtual libraries of acrylamides were docked separately, based on the amine precursor for the acrylamide (primary or secondary aliphatic amines, primary or secondary aromatic amines). In vitro kinase activity assay was carried out by Nanosyn, as described below.
(§1) In Vitro Activity Assays for MKK7 or MKK4 (Carried by Nanosyn):
(§2) Exemplary test compounds, according to some embodiments of the present invention, were diluted in DMSO to a final concentration that ranged from 10 μM to 0.0565 nM, while final concentration of DMSO in all assays was kept at 1%. Reference compound, Staurosporine, was tested in a similar manner. […] After incubation, activity of now activated JNK1 was tested in the presence of 30 μM ATP ATP for 17 h (MKK7) or 4 h (MKK4).

[2] = Metabolic stability in mouse liver microsomes; format: in vitro ADME; conditions: for half-life: mouse, liver microsomes
Source text: (§3) A reference compound, REF1250, was used in this study: […]

[3] = Metabolic stability in human liver microsomes; format: in vitro ADME; conditions: for half-life: human, liver microsomes
Source text: as §3

[4] = Metabolic stability in monkey liver microsomes; format: in vitro ADME
Source text: as §3

[5] = Metabolic stability in rat liver microsomes; format: in vitro ADME; conditions: for half-life: rat, liver microsomes
Source text: as §3

[6] = molecular target: T2, MKK4 (Homo sapiens, UniProt P45985); experiment: In vitro activity assay for MKK4 (Nanosyn); format: biochemical
T2 construct: purchased Nanosyn (contract assay)
T2 sequence (P45985 1-399): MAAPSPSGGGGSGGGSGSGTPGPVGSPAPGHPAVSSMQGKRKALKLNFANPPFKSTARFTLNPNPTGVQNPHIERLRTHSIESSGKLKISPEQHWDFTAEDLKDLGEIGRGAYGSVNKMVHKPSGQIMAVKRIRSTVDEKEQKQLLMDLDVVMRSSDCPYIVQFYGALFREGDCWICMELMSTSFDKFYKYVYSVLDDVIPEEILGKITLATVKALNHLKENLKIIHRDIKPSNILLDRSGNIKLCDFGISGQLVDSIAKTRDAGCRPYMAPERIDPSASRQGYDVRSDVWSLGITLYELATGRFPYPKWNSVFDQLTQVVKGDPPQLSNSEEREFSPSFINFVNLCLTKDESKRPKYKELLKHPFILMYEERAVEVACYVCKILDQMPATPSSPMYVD
Description: as §1, §2

[7] = test system: pJNK in HEK293 cells; experiment: In-cell western (ICW) pJNK inhibition in HEK293; format: cell-based; conditions: 2 h pre-incubation, sorbitol stimulation
Description: HEK293, Beas2B and 3T3 cells were plated 24 hours before procedure on 384 well clear bottom black flat plates (Corning) pre-coated with Fibronectin (Sigma) diluted in PBS to a concentration of 5 μg/ml 45 minutes prior to cells introduction. Cells were plated using Multidrop™ Combi reagent dispenser (Thermo Fisher Scientific). Compound, reagents and antibody dispensing as well as washes were performed with a CyBio liquid handler (Analytik). Cells were pre-incubated with a small molecule or up to 1% DMSO for 2 h before fixation. HEK293, 3T3 or Beas2B cells were treated with 0.6M/0.2M/0.2M D-Sorbitol/PBS (Sigma) for 20/40/40 min. respectively, before fixation. Media was removed and wells were immediately fixed with 150 μl per well of 3.7% formaldehyde/PBS fixing solution for 20 min. Formaldehyde was then aspired and cells were permeabilized with 150 μl of 0.5% Triton x-100/PBS solution for 10 min. After aspiration cells were washed with ice-cold methanol and stored at −20° C., for 10 min. Methanol was aspired and cells were blocked with 150 μl blocking buffer (LICOR) for 90 min. Primary antibody Phospho-SAPK/JNK T183/Y185 (CST; 9251S) was diluted 1:1000 in blocking buffer and was applied 50 μl per well, except control wells to which only blocking buffer was applied, O.N. (16 h) at 4° C. with mild shaking. Primary antibody was aspired, wells were washed with 150 μl 0.1% Tween20/PBS (Sigma) washing solution three times for 7 min. IRDye® 800CW Goat anti-Rabbit IgG Secondary antibody (LICOR) was then diluted 1:1200 in blocking buffer with 50 μl applied per well on control wells only (no CellTag control), then CellTag700 (1:2000) was added to the solution and 50 μl were added to all experiment wells, for 1 h at room temperature. Wells were aspired and washed again with 150 μl 0.1% Tween20/PBS (Sigma) washing solution three times for 7 min. plate was dried and scanned with Odyssey CLx imaging system at 700 nm and 800 nm (Licor). Wells signals were analyzed with Odyssey software. The signal was normalized by the CellTag700 signal.
To rapidly assess the cellular activity (EC50) with full dose response curves of the MKK7 covalent inhibitors, according to some embodiments of the present invention, an in-cell western assay was adapted to a 384 well plate format over traditional western blot, and monitored phospho-JNK (pJNK) levels in response to osmotic shock. We first characterized the dynamics of pJNK in response to sorbitol. Sufficient dynamic range for pJNK is achieved at 20 minutes in HEK293 cells and at 40 minutes in 3T3 and Beas2B cells. The compound's activity was assessed by pre-treating cells with either compound or DMSO for 2 hours, followed by Sorbitol stimulation. The response of pJNK, and its substrates, pc-Jun and pATF2, was measured, as well as pP38, which is a substrate of MKK4 but not MKK7, and pERK in HEK293 cells, and the results are presented in Table 5 below.

[8] = Metabolic stability in dog liver microsomes; format: in vitro ADME; conditions: for half-life: dog, liver microsomes
Source text: as §3

Structure (SMILES) | IC50 ([1]; read-out: MKK7 IC50 in vitro) [µM] | % remaining @ 40 min [2] [%] | half-life [2] [min] | % remaining @ 40 min [3] [%] | half-life [3] [min] | % remaining @ 40 min [4] [%] | half-life [4] [min] | % remaining @ 40 min [5] [%] | half-life [5] [min] | IC50 [6] [µM] | EC50 ([7]; HEK293, ICW) | % remaining @ 40 min [8] [%] | half-life [8] [min] | potency towards MKK7 compared with Aurora kinase ([1]; MKK7 nanomolar, Aurora kinase micromolar) | IC50 ([1]; read-out: MKK7 IC50) [µM] | EC50 ([7]; Homo sapiens, HEK293, HEK293, ICW) [µM]
C=CC(=O)Nc1cccc(-c2n[nH]c3c2CCCC3)c1 [GO4] | 0.011 | 0 | < 5 | 0 | < 5 | 0 | < 5 | 0 | < 5 | 4.13 | 5.2 µM | 0 | < 5 |  |  | 
C=CC(=O)Nc1cccc(-c2n[nH]c3ccccc23)c1 [GO32] | 0.006 | 0 | < 5 | 0 | < 5 | 0 | < 5 | 0 | < 5 | 4.15 | 2.06 µM | 0 | < 5 | at least two orders of magnitude | 0.009 | 
C=CC(=O)Nc1cccc(-c2n[nH]c3cc(C)ccc23)c1 [GO80] | 0.005 | 0 | < 5 | 0 | < 5 | 0 | < 5 | 1 | 6 | 7.81 | 1.3 µM and 0.8 µM | 0 | < 5 |  |  | 1.26
